Data taken from paper PMC11879280, “Antimicrobial activity of peptoids against Metallo-β-lactamase-producing Klebsiella pneumoniae, Acinetobacter baumannii, Pseudomonas aeruginosa, and other WHO priority pathogens, including Candida auris” (Journal of Applied Microbiology, 2025).
≈ marks a conversion by molar mass, not a printed value. Where two headings read alike, the source gives them in different places. Square brackets hold non-standard residues; d marks the D form. Peptide text beside a SMILES is read from it. Nspe = C[C@H](NCC(=O)O)c1ccccc1; NDecylGly = CCCCCCCCCCNCC(=O)O; Nlys = NCCCCNCC(=O)O

How the values were obtained:
C. auris CBS12373 = experiment: Broth microdilution MIC; type: cell-based, Candida auris
C. auris strains = details: for Geometric mean MICCA: two C. auris strains
Method: Briefly, bacteria were suspended in cation-adjusted Mueller–Hinton broth (CAMHB; Oxoid, UK) for antibiotics, or MHB (Oxoid, UK) for peptidomimetics to obtain 5 × 10^5 colony forming unit (CFU) ml^−1. […] Positive controls contained only microbes, and blanks contained only media. Microbial suspensions (100 µl) were added to wells, plates wrapped, and incubated at 37°C, 120 rpm for 16–20 h. After incubation, suspensions were removed, log10 diluted, and plated on Trypticase Soya Agar with phosphatidylcholine and Tween 80 to determine minimum bactericidal or fungicidal concentration (MBC or MFC). […] Geometric mean MIC of the peptoids were calculated to evaluate the broad overview of antimicrobial activity across the pathogens.
The therapeutic indices (TIs) of the compounds were calculated with the use of following formula: […]

[1] = system: horse red blood cells (RBCs); experiment: Haemolysis assay; type: cell-based
Method: The haemolytic activity of the peptidomimetics was performed to determine mammalian cell safety. This assay used horse red blood cells (RBCs) (Sigma–Aldrich, USA) as described previously (Willcox et al. [2008], Chongsiriwatana et al. [2017], Yasir et al. [2019b]). RBCs were washed three times with PBS at 470 g for 5 min. Peptoids (0.5–250 μg ml^−1) were prepared in PBS and added to washed RBCs, then incubated at 37°C for 4 h. After incubation, cells were centrifuged at 1057 g for 10 min, and the supernatant’s OD at 540 nm was measured for lysis. PBS-only RBCs served as the negative control (no haemolysis), and Milli-Q water-treated RBCs as the positive control (100% lysis). Percent haemolysis was calculated as: (ODT − ODNC)/(ODPC − ODNC) × 100, where ODT, ODNC, and ODPC are the absorbances of the test, negative, and positive controls, respectively. This experiment was performed in triplicate.

A. baumannii 006 = system: A. baumannii 006
Outline: (§1)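 Each strain, at 5 × 10^5 CFU ml^−1, is exposed to compound in Mueller–Hinton-based broth (cation-adjusted for antibiotics) and incubated 16–20 h, 37°C, 120 rpm. Bactericidal concentrations come from plating log10 dilutions of the wells on supplemented agar.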

A. baumannii 007 = system: A. baumannii 007
Outline: as §1

A. baumannii 008 = system: A. baumannii 008
Outline: as §1

A. baumannii ATCC 19 606 = system: A. baumannii ATCC 19 606
Outline: as §1

E. coli 0011 = system: E. coli 0011
Outline: as §1

E. coli 0015 = system: E. coli 0015
Outline: as §1

E. coli 005 = system: E. coli 005
Outline: as §1

En. cloacae 001 = system: En. cloacae 001
Outline: as §1

En. cloacae 003 = system: En. cloacae 003
Outline: as §1

En. cloacae 005 = system: En. cloacae 005
Outline: as §1

K. pneumoniae JIE2713 = system: K. pneumoniae JIE2713
Outline: as §1

K. pneumoniae JIE4212 = system: K. pneumoniae JIE4212
Outline: as §1

P. aeruginosa 216 = system: P. aeruginosa 216
Outline: as §1

P. aeruginosa 33 = system: P. aeruginosa 33
Outline: as §1

P. aeruginosa AR-1270 = system: P. aeruginosa AR-1270
Outline: as §1

S. aureus 117 = system: S. aureus 117
Outline: as §1

S. aureus 38 = system: S. aureus 38
Outline: as §1

[2] = CBS 12 373, RPMI 1640 with MOPS, 5 × 10^3 CFU ml^−1, ≥90% reduction (≥50% for fluconazole)
[3] = horse RBCs in PBS, 37°C, 4 h, OD 540 nm, triplicate, best fit curve
[4] = horse RBCs in PBS, 37°C, 4 h, value in brackets
[5] = A. baumannii 006, MHB (melimine/Mel4 with 0.2% BSA, 0.01% acetic acid), mean MIC
[6] = A. baumannii 007, MHB (melimine/Mel4 with 0.2% BSA, 0.01% acetic acid), mean MIC
[7] = A. baumannii 008, MHB (melimine/Mel4 with 0.2% BSA, 0.01% acetic acid), mean MIC
[8] = A. baumannii ATCC 19 606, MHB (melimine/Mel4 with 0.2% BSA, 0.01% acetic acid), mean MIC
[9] = E. coli 0011, MHB (melimine/Mel4 with 0.2% BSA, 0.01% acetic acid), mean MIC
[10] = E. coli 0015, MHB (melimine/Mel4 with 0.2% BSA, 0.01% acetic acid), mean MIC
[11] = E. coli 005, MHB (melimine/Mel4 with 0.2% BSA, 0.01% acetic acid), mean MIC
[12] = En. cloacae 001, MHB (melimine/Mel4 with 0.2% BSA, 0.01% acetic acid), mean MIC
[13] = En. cloacae 003, MHB (melimine/Mel4 with 0.2% BSA, 0.01% acetic acid), mean MIC
[14] = En. cloacae 005, MHB (melimine/Mel4 with 0.2% BSA, 0.01% acetic acid), mean MIC
[15] = K. pneumoniae JIE2713, MHB (melimine/Mel4 with 0.2% BSA, 0.01% acetic acid), mean MIC
[16] = K. pneumoniae JIE4212, MHB (melimine/Mel4 with 0.2% BSA, 0.01% acetic acid), mean MIC
[17] = P. aeruginosa 216, MHB (melimine/Mel4 with 0.2% BSA, 0.01% acetic acid), mean MIC
[18] = P. aeruginosa 33, MHB (melimine/Mel4 with 0.2% BSA, 0.01% acetic acid), mean MIC
[19] = P. aeruginosa AR-1270, MHB (melimine/Mel4 with 0.2% BSA, 0.01% acetic acid), mean MIC
[20] = S. aureus 117, MHB (melimine/Mel4 with 0.2% BSA, 0.01% acetic acid), mean MIC
[21] = S. aureus 38, MHB (melimine/Mel4 with 0.2% BSA, 0.01% acetic acid), mean MIC

C[C@@H](c1ccccc1)N(CC(N)=O)C(=O)CN(CCCCN)C(=O)CN(C(=O)CN(C(=O)CN(CCCCN)C(=O)CN(C(=O)CN(C(=O)CN(CCCCN)C(=O)CN(C(=O)CN(C(=O)CNCCCCN)[C@@H](C)c1ccccc1)[C@@H](C)c1ccccc1)[C@@H](C)c1ccccc1)[C@@H](C)c1ccccc1)[C@@H](C)c1ccccc1)[C@@H](C)c1ccccc1 [TM6] (H-[Nlys][Nspe][Nspe][Nlys][Nspe][Nspe][Nlys][Nspe][Nspe][Nlys][Nspe]-NH2)
MIC against C. auris (C. auris CBS12373; [2]): 2 µg/mL | MIC against C. auris (C. auris CBS12373; CBS 12 373, value in brackets): 1.2 µM | Geometric mean MICCA (C. auris strains): 7.9 µg/mL | HD10 (10% haemolytic dose) [1, 3]: 43.2 µg/mL | HD50 (50% haemolytic dose) [1, 3]: > 256 µg/mL | HD10 (10% haemolytic dose) [1, 4]: 26.1 µmol/L | HD50 (50% haemolytic dose) [1, 4]: > 154.4 µmol/L | MIC of peptidomimetics (A. baumannii 006; [5]): 7.8 µg/mL | MIC of peptidomimetics (A. baumannii 006; A. baumannii 006, value in brackets): 4.7 µM | MIC of peptidomimetics (A. baumannii 007; [6]): 7.8 µg/mL | MIC of peptidomimetics (A. baumannii 007; A. baumannii 007, value in brackets): 4.7 µM | MIC of peptidomimetics (A. baumannii 008; [7]): 15.6 µg/mL | MIC of peptidomimetics (A. baumannii 008; A. baumannii 008, value in brackets): 9.4 µM | MIC of peptidomimetics (A. baumannii ATCC 19 606; [8]): 7.8 µg/mL | MIC of peptidomimetics (A. baumannii ATCC 19 606; A. baumannii ATCC 19 606, value in brackets): 4.7 µM | MIC of peptidomimetics (E. coli 0011; [9]): 15.6 µg/mL | MIC of peptidomimetics (E. coli 0011; E. coli 0011, value in brackets): 9.4 µM | MIC of peptidomimetics (E. coli 0015; [10]): 62.5 µg/mL | MIC of peptidomimetics (E. coli 0015; E. coli 0015, value in brackets): 37.7 µM | MIC of peptidomimetics (E. coli 005; [11]): 62.5 µg/mL | MIC of peptidomimetics (E. coli 005; E. coli 005, value in brackets): 37.7 µM | MIC of peptidomimetics (En. cloacae 001; [12]): 15.6 µg/mL | MIC of peptidomimetics (En. cloacae 001; En. cloacae 001, value in brackets): 9.4 µM | MIC of peptidomimetics (En. cloacae 003; [13]): 15.6 µg/mL | MIC of peptidomimetics (En. cloacae 003; En. cloacae 003, value in brackets): 9.4 µM | MIC of peptidomimetics (En. cloacae 005; [14]): 15.6 µg/mL | MIC of peptidomimetics (En. cloacae 005; En. cloacae 005, value in brackets): 9.4 µM | MIC of peptidomimetics (K. pneumoniae JIE2713; [15]): 62.5 µg/mL | MIC of peptidomimetics (K. pneumoniae JIE2713; K. pneumoniae JIE2713, value in brackets): 37.7 µM | MIC of peptidomimetics (K. pneumoniae JIE4212; [16]): 15.6 µg/mL | MIC of peptidomimetics (K. pneumoniae JIE4212; K. pneumoniae JIE4212, value in brackets): 9.4 µM | MIC of peptidomimetics (P. aeruginosa 216; [17]): 15.6 µg/mL | MIC of peptidomimetics (P. aeruginosa 216; P. aeruginosa 216, value in brackets): 9.4 µM | MIC of peptidomimetics (P. aeruginosa 33; [18]): 31.3 µg/mL | MIC of peptidomimetics (P. aeruginosa 33; P. aeruginosa 33, value in brackets): 18.8 µM | MIC of peptidomimetics (P. aeruginosa AR-1270; [19]): 31.3 µg/mL | MIC of peptidomimetics (P. aeruginosa AR-1270; P. aeruginosa AR-1270, value in brackets): 18.8 µM | MIC of peptidomimetics (S. aureus 117; [20]): 7.8 µg/mL | MIC of peptidomimetics (S. aureus 117; S. aureus 117, value in brackets): 4.7 µM | MIC of peptidomimetics (S. aureus 38; [21]): 7.8 µg/mL | MIC of peptidomimetics (S. aureus 38; S. aureus 38, value in brackets): 4.7 µM

CCCCCCCCCCNCC(=O)N(CCCCN)CC(=O)N(CC(=O)N(CC(=O)N(CCCCN)CC(=O)N(CC(=O)N(CC(N)=O)[C@@H](C)c1ccccc1)[C@@H](C)c1ccccc1)[C@@H](C)c1ccccc1)[C@@H](C)c1ccccc1 [TM8] (H-[NDecylGly][Nlys][Nspe][Nspe][Nlys][Nspe][Nspe]-NH2)
MIC against C. auris (C. auris CBS12373; [2]): 3.9 µg/mL | MIC90 (C. auris CBS12373; CBS12373): 15.6 µg/mL (≈ 14 µM) | MIC against C. auris (C. auris CBS12373; CBS12373): 3.5 µM | MIC against both C. auris strains (C. auris strains; strains): < 10 µg/mL | Geometric mean MICCA (C. auris strains): 5.5 µg/mL | HD10 (10% haemolytic dose) [1]: 7.2 µmol/L | HD50 (50% haemolytic dose) [1]: 24.4 µmol/L | HD10 (10% haemolytic dose) ([1]; red cells of horse, 4 h): 8 µg/mL | HD50 (50% haemolytic dose) ([1]; red cells of horse, 4 h): 27.2 µg/mL | MIC of peptidomimetics (A. baumannii 006; 006): 3.5 µM | MIC of peptidomimetics (A. baumannii 006; [5]): 3.9 µg/mL | MIC of peptidomimetics (A. baumannii 007; 007): 3.5 µM | MIC of peptidomimetics (A. baumannii 007; [6]): 3.9 µg/mL | MIC of peptidomimetics (A. baumannii 008; 008): 7.0 µM | MIC of peptidomimetics (A. baumannii 008; [7]): 7.8 µg/mL | MIC of peptidomimetics (A. baumannii ATCC 19 606; [8]): 3.9 µg/mL | MIC of peptidomimetics (A. baumannii ATCC 19 606; ATCC 19): 3.5 µM | MIC of peptidomimetics (E. coli 0011; 0011): 14.0 µM | MIC of peptidomimetics (E. coli 0011; [9]): 15.6 µg/mL | MIC of peptidomimetics (E. coli 0015; 0015): 7.0 µM | MIC of peptidomimetics (E. coli 0015; [10]): 7.8 µg/mL | MIC of peptidomimetics (E. coli 005; 005): 7.0 µM | MIC of peptidomimetics (E. coli 005; [11]): 7.8 µg/mL | MIC of peptidomimetics (En. cloacae 001): 7.0 µM | MIC of peptidomimetics (En. cloacae 001; [12]): 7.8 µg/mL | MIC of peptidomimetics (En. cloacae 003): 7.0 µM | MIC of peptidomimetics (En. cloacae 003; [13]): 7.8 µg/mL | MIC of peptidomimetics (En. cloacae 005): 14.0 µM | MIC of peptidomimetics (En. cloacae 005; [14]): 15.6 µg/mL | MIC of peptidomimetics (K. pneumoniae JIE2713; JIE2713): 14.0 µM | MIC of peptidomimetics (K. pneumoniae JIE2713; [15]): 15.6 µg/mL | MIC of peptidomimetics (K. pneumoniae JIE4212; JIE4212): 7.0 µM | MIC of peptidomimetics (K. pneumoniae JIE4212; [16]): 7.8 µg/mL | MIC of peptidomimetics (P. aeruginosa 216; 216): 7.0 µM | MIC of peptidomimetics (P. aeruginosa 216; [17]): 7.8 µg/mL | MIC of peptidomimetics (P. aeruginosa 33; 33): 3.5 µM | MIC of peptidomimetics (P. aeruginosa 33; [18]): 3.9 µg/mL | MIC of peptidomimetics (P. aeruginosa AR-1270; AR-1270): 14.0 µM | MIC of peptidomimetics (P. aeruginosa AR-1270; [19]): 15.6 µg/mL | MIC of peptidomimetics (S. aureus 117; 117): 3.5 µM | MIC of peptidomimetics (S. aureus 117; [20]): 3.9 µg/mL | MIC of peptidomimetics (S. aureus 38; 38): 3.5 µM | MIC of peptidomimetics (S. aureus 38; [21]): 3.9 µg/mL
